Measured values: patent US9290537B2, “Method for cross-linking peptides” (UNIVERSITEIT GENT, priority 2010, dated 2016)

Columns and labels:
streptavidin [1] = target: T1, streptavidin (Streptomyces avidinii, UniProt P22629); assay: Specific inhibition of the cross-link of free furan-StrepTagII peptides with streptavidin by biotin; type: binding; details: ten equivalents peptide, streptavidin and biotin, 60 min 37° C.; one equivalent NBS, 2 hours 10° C.
Protocol: In order to test the specificity of the StrepTagII-streptavidin cross-link, the experiment of Example 5 was repeated in the presence of biotin. As mentioned before, biotin binds streptavidin with high affinity and on the same binding site as the StrepTagII and can therefore act as a specific inhibitor of the cross-link.
Ten equivalents of the furan-StrepTagII peptides 5.2 or 5.3, obtained as described in Example 1, were mixed with streptavidin and biotin and incubated during 60 min at 37° C. One equivalent of NBS per equivalent of peptide was added and the reaction was performed during 2 hours at 10° C. with shaking.

streptavidin [2] = target: T1, streptavidin; assay: Cross-linking free furan-StrepTagII peptides with streptavidin (furan-oxidation, NBS, MALDI-TOF); type: binding; details: for peptide cross-linking with streptavidin: ten equivalents peptide, 60 min 37° C., one equivalent NBS per peptide, 2 hours 10° C., NaCNBH3
Source text: In order to show the cross-link between peptides, an in vitro model system based on the interaction between the StrepTagII and streptavidin was used. The first available Strep-Tag (AWRHPQFGG; SEQ ID NO: 19) able to bind streptavidin could only be attached to the C-terminus of a protein. By changing the sequence of the Strep-Tag, a StrepTagII was developed that can be both N-terminally and C-terminally modified without losing its affinity for streptavidin. Because the intermolecular interactions between the StrepTagII and streptavidin are well characterized, StrepTagII-streptavidin is an excellent model for testing cross-linking.
The free N-terminal and C-terminal furan-StrepTagII peptides 5.2 and 5.3, obtained as described in Example 1, were used to test cross-linking with streptavidin using the furan-oxidation method.
Ten equivalents of the furan-peptides 5.2 or 5.3 were mixed with streptavidin and incubated during 60 min at 37° C. One equivalent of NBS per equivalent of peptide was added as an activation signal and the reaction mixture was incubated during 2 hours at 10° C. with shaking. […] The cross-link between the N-terminal furan-StrepTagII peptide 5.2 and streptavidin was less explicit than the cross-link between the C-terminal furan-StrepTagII peptide 5.3 and streptavidin. This is however not unexpected since the N-terminus of the furan-StrepTagII peptide 5.2 is located outside of its binding site with streptavidin.

[3] = target: T2, Tyr384Phe-Tyr306Ala variant of the pyrrolysyl-tRNA synthetase of M. mazei (Methanosarcina mazei, UniProt Q8PWY1, Y306A/Y384F); assay: Incorporation of furan amino acid in Yellow Fluorescent Protein in E. coli, mutated synthetase; type: cell-based; details: for incorporation in YFP by the mutated pyrrolysine tRNA-synthetase: 0, 2, 5 and 10 mM in T7 Express E. coli cultures, YFP fluorescence
T2 construct: expressed in transfected cells
Protocol: (§1) The incorporation of unnatural furan amino acids by the pyrrolysyl-tRNA synthetase and its tRNA-CUA in Yellow Fluorescent Protein (YFP) can be easily evaluated by monitoring its fluorescence with confocal microscopy. Without incorporation of the furan amino acid at the amber codon position a truncated non-fluorescent protein was obtained, therefore the obtained fluorescence intensity paralleled the incorporation efficiency. The incorporation of the furan amino acids was tested with the tRNA-CUA of Methanosarcina mazei (M. mazei) and with the wild type pyrrolysyl-tRNA synthetase of M. mazei and the Tyr384Phe-Tyr306Ala variant of the pyrrolysyl-tRNA synthetase of M. mazei (Yanagisawa et al., Chemistry & Biology, 2008, 15, 1187-1197).
(§2) The furan amino acid of Formula (XId) or the furan amino acid of Formula (XIc) was added in a concentration of 0, 2, 5 and 10 mM to 5 ml cell cultures of T7 Express Competent E. coli (from New England BioLabs) transformed with a pET-Duet-1 plasmid (Novagen) containing the genes for the pyrrolysine tRNA-synthetase, 3 copies of the tRNA-CUA and the mutated YFP, in LB medium with the appropriate antibiotic.

[4] = target: T3, wild type pyrrolysyl-tRNA synthetase of M. mazei (Methanosarcina mazei, UniProt Q8PWY1); assay: Incorporation of furan amino acid in Yellow Fluorescent Protein in E. coli, wild type synthetase; type: cell-based; details: 0, 2, 5 and 10 mM in T7 Express E. coli cultures; YFP fluorescence
T3 construct: expressed in transfected cells
Protocol: as §1, §2

streptavidin [5] = target: T1, streptavidin; details: same binding site as the StrepTagII; cited from earlier work
[6] = target: T4, wild type pyrrolysyl-tRNA synthetase and tRNA-CUA of M. mazei (Methanosarcina mazei, UniProt Q8PWY1); assay: Incorporation of furan amino acid in thioredoxinA (TrxA), LCMS and trypsin digest; type: cell-based; details: 5 mM in 1 l cell culture; trypsin digest and peptide analysis
T4 construct: expressed in transfected cells
Protocol: In addition to YFP, another protein, thioredoxinA (TrxA), was chosen for providing additional proof of incorporation of a furan amino acid in a protein, through mass characterization after purification.
Experiments were performed similar as in Example 12 with wild type pyrrolysyl-tRNA synthetase and tRNA-CUA of M. mazei, with the mutated TrxA and with the furan amino acid of Formula (XIc) in a concentration of 5 mM in a 1 l cell culture. This yielded 170 μg of protein after purification over a Strep column. Accurate mass determination with full protein LCMS analysis (Orbitrap, Thermo Scientific) found a mass of 13039.7 Dalton (the calculated average mass of the furan-modified oxidized thioredoxinA without the starting methionine is 13039.95 Dalton), proving the incorporation of the furan amino acid in the protein and its stability.

T1 sequence (P22629 25-183, species assumed): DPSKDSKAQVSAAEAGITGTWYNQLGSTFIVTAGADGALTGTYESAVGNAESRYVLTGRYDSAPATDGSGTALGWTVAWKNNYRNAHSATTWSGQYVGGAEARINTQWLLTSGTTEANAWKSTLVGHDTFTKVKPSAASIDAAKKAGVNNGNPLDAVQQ
T2 sequence (Q8PWY1 whole entry Y306A/Y384F): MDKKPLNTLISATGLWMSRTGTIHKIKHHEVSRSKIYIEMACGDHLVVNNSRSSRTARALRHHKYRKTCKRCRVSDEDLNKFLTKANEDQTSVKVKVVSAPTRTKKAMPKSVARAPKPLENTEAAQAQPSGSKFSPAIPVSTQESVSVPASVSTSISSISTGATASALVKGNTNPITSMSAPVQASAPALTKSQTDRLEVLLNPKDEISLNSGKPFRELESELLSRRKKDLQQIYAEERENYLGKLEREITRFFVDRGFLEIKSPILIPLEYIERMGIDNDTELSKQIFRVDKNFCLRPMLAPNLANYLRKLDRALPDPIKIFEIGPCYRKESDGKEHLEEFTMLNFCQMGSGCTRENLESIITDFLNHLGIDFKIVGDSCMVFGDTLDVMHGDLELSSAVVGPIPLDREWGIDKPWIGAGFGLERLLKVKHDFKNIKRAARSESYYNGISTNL
T3 sequence (Q8PWY1 whole entry): as the sequence (Q8PWY1 whole entry Y306A/Y384F) above, with A306Y, F384Y counted along it
T4 sequence (Q8PWY1 whole entry): as the sequence (Q8PWY1 whole entry Y306A/Y384F) above, with A306Y, F384Y counted along it

Molecule	peptide cross-linking with streptavidin (streptavidin [2])	incorporation in YFP by the mutated pyrrolysine tRNA-synthetase [3]	incorporation in YFP by the wild type synthetase [4]	other results
peptide 5.3: C-terminal furan-StrepTagII peptide with C-terminal (2-furyl)-alanine, N-terminally capped with 2-naphtoic acid (FIG. 9, SEQ ID NO 3) (WSHPQFEKA; N-terminal 2-naphthoyl cap; C-terminal 2-furylalanine)	cross-linking was observed	–	–	cross-link with streptavidin in the presence of biotin (streptavidin [1]): no cross-link
peptide 5.2: N-terminal furan-StrepTagII peptide with N-terminal (2-furyl)-alanine capped with 2-naphtoic acid (FIG. 8, SEQ ID NO 2) (AWSHPQFEK; N-terminal furylalanine capped with 2-naphthoic acid)	cross-linking was observed	–	–	cross-link with streptavidin compared with peptide 5.3 (streptavidin [2]; same conditions as E1): less explicit
NC(CCCCNC(=O)NCc1ccco1)C(=O)O (centres unmarked) [furan amino acid of Formula (XId)]	–	incorporated both	did not incorporate	–
O=C(O)CCCC[C@@H]1SC[C@@H]2NC(=O)N[C@@H]21 [biotin]	–	–	–	affinity for streptavidin relative to StrepTagII (streptavidin [5]): much higher affinity
NC(CCCCNC(=O)c1ccco1)C(=O)O (centres unmarked) [furan amino acid of Formula (XIc)]	–	incorporated both	incorporated in YFP by the wild type synthetase in good yield	incorporation in YFP by the mutated synthetase, comparison ([3]; compared with Formula (XId) and with wild type synthetase): better than the incorporation of the furan amino acid of Formula (XId), but in lower yield than with the wild type synthetase; incorporation in TrxA [6]: incorporation of the furan amino acid on the correct position of TrxA
